According to patent US20250276984A1, “SOLID STATE FORMS OF HER2 INHIBITORS” (Iambic Therapeutics, Inc., priority 2024, published 2025):
In brackets after ≈: the same amount, converted by molar mass.

How the values were obtained:
[1] = Dynamic vapor sorption (DVS); type: physicochemical; set-up: Hysteresis: unit not given here
Experimental: By DVS, a weight gain of 2.8 weight %, consistent with a gain of 0.9 mol water, was observed from 6% to 95% RH. A complete desorption was observed from 95% to 6% RH. No significant hysteresis was observed. The resulting crystalline material was analyzed by XRPD and shown to the Form A.

[2] = Solubility estimated by solvent aliquot addition at ambient temperature; type: physicochemical; conditions: thermodynamic from solid
Text: Solubilities were estimated by solvent aliquot addition at ambient temperature and reported to the nearest whole number; if complete dissolution was achieved by one aliquot addition, the value is reported as “>”; if solids were present, the value is reported as “<”. The actual solubility may be larger than the value calculated because of the use of solvent aliquots that were too large or due to a slow rate of dissolution.

[3] = Cycle 1, target RH 95.0%, sample RH 95.4%

Cc1cc(Nc2ncnn3ccc(C4CCN(C(=O)/C=C/CN(C)C)CC4)c23)ccc1Oc1ccn2ncnc2c1 [Compound 1 Form A, (E)-1-(4-(4-((4-([1,2,4]triazolo[1,5-a]pyridin-7-yloxy)-3-methylphenyl)amino)pyrrolo[2,1-f][1,2,4]triazin-5-yl)piperidin-1-yl)-4-(dimethylamino)but-2-en-1-one]
Sorp Mass Change ([1]; Cycle 1, target RH 5.0%, sample RH 5.5%): 0.004%
Desorp Mass Change ([1]; Cycle 1, target RH 5.0%, sample RH 5.8%): −0.017%
Hysteresis ([1]; Cycle 1, target RH 15.0%): −0.006
Desorp Mass Change ([1]; Cycle 1, target RH 15.0%, sample RH 15.3%): 0.271%
Sorp Mass Change ([1]; Cycle 1, target RH 15.0%, sample RH 15.5%): 0.277%
Hysteresis ([1]; Cycle 1, target RH 25.0%): 0.039
Sorp Mass Change ([1]; Cycle 1, target RH 25.0%, sample RH 24.6%): 0.609%
Desorp Mass Change ([1]; Cycle 1, target RH 25.0%, sample RH 25.0%): 0.648%
Hysteresis ([1]; Cycle 1, target RH 35.0%): 0.075
Sorp Mass Change ([1]; Cycle 1, target RH 35.0%, sample RH 34.3%): 1.034%
Desorp Mass Change ([1]; Cycle 1, target RH 35.0%, sample RH 34.8%): 1.109%
Hysteresis ([1]; Cycle 1, target RH 45.0%): 0.104
Sorp Mass Change ([1]; Cycle 1, target RH 45.0%, sample RH 44.4%): 1.470%
Desorp Mass Change ([1]; Cycle 1, target RH 45.0%, sample RH 44.9%): 1.573%
Hysteresis ([1]; Cycle 1, target RH 55.0%): 0.123
Sorp Mass Change ([1]; Cycle 1, target RH 55.0%, sample RH 54.3%): 1.811%
Desorp Mass Change ([1]; Cycle 1, target RH 55.0%, sample RH 54.8%): 1.934%
Hysteresis ([1]; Cycle 1, target RH 65.0%): 0.112
Sorp Mass Change ([1]; Cycle 1, target RH 65.0%, sample RH 64.4%): 2.087%
Desorp Mass Change ([1]; Cycle 1, target RH 65.0%, sample RH 64.9%): 2.199%
Hysteresis ([1]; Cycle 1, target RH 75.0%): 0.116
Sorp Mass Change ([1]; Cycle 1, target RH 75.0%, sample RH 74.5%): 2.315%
Desorp Mass Change ([1]; Cycle 1, target RH 75.0%, sample RH 75.1%): 2.431%
Hysteresis ([1]; Cycle 1, target RH 85.0%): 0.096
Sorp Mass Change ([1]; Cycle 1, target RH 85.0%, sample RH 85.1%): 2.559%
Desorp Mass Change ([1]; Cycle 1, target RH 85.0%, sample RH 86.2%): 2.656%
Desorp Mass Change [1, 3]: 2.849%
Sorp Mass Change [1, 3]: 2.849%
water gain consistent with DVS weight gain ([1]; from 6% to 95% RH): 0.9 mol water
weight gain by DVS ([1]; from 6% to 95% RH): 2.8 weight %
solubility ([2]; aqueous with cosolvent or surfactant or cyclodextrin, 10:90 dioxane/water v/v): < 1 mg/mL
solubility ([2]; aqueous with cosolvent or surfactant or cyclodextrin, 20:80 MeOH/water v/v): < 1 mg/mL
solubility ([2]; aqueous with cosolvent or surfactant or cyclodextrin, 35:65 THF/water v/v): 17 mg/mL (≈ 30.8 mM)
solubility ([2]; aqueous with cosolvent or surfactant or cyclodextrin, 50:50 ACN/water v/v): > 72 mg/mL
solubility ([2]; aqueous with cosolvent or surfactant or cyclodextrin, 50:50 DMAc/water v/v): 10 mg/mL (≈ 18.1 mM)
solubility ([2]; aqueous with cosolvent or surfactant or cyclodextrin, 50:50 MeOH/water v/v): 4 mg/mL (≈ 7.25 mM)
solubility ([2]; aqueous with cosolvent or surfactant or cyclodextrin, 50:50 THF/water v/v): > 31 mg/mL
solubility ([2]; aqueous with cosolvent or surfactant or cyclodextrin, 50:50 acetone/water v/v): 24 mg/mL (≈ 43.5 mM)
solubility ([2]; aqueous with cosolvent or surfactant or cyclodextrin, 50:50 dioxane/water v/v): 29 mg/mL (≈ 52.6 mM)
solubility ([2]; organic solvent or mixture, 2-MeTHF): 5 mg/mL (≈ 9.06 mM)
solubility ([2]; organic solvent or mixture, 10:90 chloroform/IPA v/v): 27 mg/mL (≈ 48.9 mM)
solubility ([2]; organic solvent or mixture, 20:80 MeOH/EtOAc v/v): > 51 mg/mL
solubility ([2]; organic solvent or mixture, 30:70 DCM/toluene v/v): 9 mg/mL (≈ 16.3 mM)
solubility ([2]; organic solvent or mixture, 30:70 DMAc/MTBE v/v): 29 mg/mL (≈ 52.6 mM)
solubility ([2]; organic solvent or mixture, 30:70 EtOH/toluene v/v): > 88 mg/mL
solubility ([2]; organic solvent or mixture, 50:50 DCM/toluene v/v): 50 mg/mL (≈ 90.6 mM)
solubility ([2]; organic solvent or mixture, 50:50 DMAc/toluene v/v): > 28 mg/mL
solubility ([2]; organic solvent or mixture, 50:50 EtOAc/IPA v/v): 17 mg/mL (≈ 30.8 mM)
solubility ([2]; organic solvent or mixture, 50:50 EtOAc/MIBK v/v): 4 mg/mL (≈ 7.25 mM)
solubility ([2]; organic solvent or mixture, 70:30 THF/heptane v/v): 10 mg/mL (≈ 18.1 mM)
solubility ([2]; organic solvent or mixture, ACN): 7 mg/mL (≈ 12.7 mM)
solubility ([2]; organic solvent or mixture, Acetone): 15 mg/mL (≈ 27.2 mM)
solubility ([2]; organic solvent or mixture, DCM): > 88 mg/mL
solubility ([2]; organic solvent or mixture, DMAc): > 110 mg/mL
solubility ([2]; organic solvent or mixture, EtOAc): 3 mg/mL (≈ 5.44 mM)
solubility ([2]; organic solvent or mixture, IPA): 3 mg/mL (≈ 5.44 mM)
solubility ([2]; organic solvent or mixture, MIBK): 3 mg/mL (≈ 5.44 mM)
solubility ([2]; organic solvent or mixture, MTBE): < 1 mg/mL
solubility ([2]; organic solvent or mixture, MeOH): > 116 mg/mL
solubility ([2]; organic solvent or mixture, THF): 38 mg/mL (≈ 68.9 mM)
solubility ([2]; organic solvent or mixture, chloroform): > 100 mg/mL
solubility ([2]; organic solvent or mixture, cyclohexane): < 1 mg/mL
solubility ([2]; organic solvent or mixture, dioxane): 32 mg/mL (≈ 58 mM)
solubility ([2]; organic solvent or mixture, heptane): < 2 mg/mL
solubility ([2]; organic solvent or mixture, toluene): < 1 mg/mL
solubility ([2]; water): < 1 mg/mL
